According to patent US20250304563A1, “ACTIVATORS OF EFFECTOR T CELLS” (Orum Therapeutics, Inc., priority 2022, published 2025):

Tests used:
[1] = molecular target: Cbl-b (36-427 aa truncated form, N-terminus Avi-tag) (Homo sapiens (Human), UniProt Q13191); experiment: Cbl-b binding: TR-FRET displacement of BODIPY-FL probe
Procedure: Compounds were assessed for binding activity to Cbl-b by their ability to compete with and displace a probe comprised of BODIPY-FL fluorophore conjugated to a Cbl-b inhibitor (see Example 54 in WO2020264398). In the assay, a 36-427 aa truncated form of Cbl-b with an N-terminus Avi-tag was incubated 20 mM HEPES pH 7.5, 150 mM NaCl, 0.01% Triton X-100, 0.1% BSA, 0.5 mM TCEP buffer with streptavidin-terbium (Cisbio). After one hour of incubation at room temperature, 1 uM each of fluorescent probe and compound were combined with the reaction mixture. Compounds with Cbl-b binding activity competitively displace the fluorophore tagged inhibitor thereby disrupting the FRET signal from the terbium-BODIPY-FL complex. The reaction mixtures were incubated for one additional hour at room temperature to allow for competition between inhibitor and candidate compounds to occur. The time resolved FRET (TR-FRET) signal was then read at 520/620 […] (excitation/emission) using a Spectramax M5e plate reader (Molecular Devices) to measure probe displacement. Compounds with Cbl-b binding activity had decreased FRET signal owing to disruption of the terbium-BODIPY-FL FRET complex. Standard methods in PRISM were used to calculate the compound IC50 values from the experimental data.

Human primary T cells [2] = experiment: T cell activation: secreted IL-2; assay type: cell-based; settings: 48 hours, fold over background normalized to Compound 141A; for IL-2 1 nM: 1 nM compound; for IL-2 10 nM: 10 nM compound; for IL-2 100 nM: 100 nM compound
Procedure: (§1) Human primary T cells were isolated from commercially available frozen peripheral blood mononuclear cells (HemaCare Corporation) or from fresh LeukoPaks (Research Blood Components). T cells were isolated through depletion of non-T cells using negative selection kit according to the manufacturer's protocol (Miltenyi Biotec, Human Pan T Cell Isolation Kit, 130-096-535). Isolated cells were cultured overnight at 37° C. with 5% CO2 and plated at 1×10^5 cells per well in XVivo-15 serum-free media (Lonza, 04-418Q) into 96 well plates coated with anti-CD3 (OKT3) antibody (ThermoFisher, 16-0037-85). To coat the plates for T cell capture, anti-CD3 antibody was diluted in PBS at 10 μg/mL and 100 μl added to each well. Plates were incubated at 4° C. overnight or at 37° C. for 2 hours and washed once with PBS before use. Serial dilutions of each compound were added in duplicates to the T cells to assess their effect on T cell activation. T cells treated with 5 μg/mL of CD28 antibody (ThermoFisher, 16-0289-85) or T cells stimulated by CD3 only were used as a control. Plates were incubated with the Cbl-b inhibitors for 48 hours at 37° C. with 5% CO2, and supernatants were subsequently analyzed for levels of the activation induced secreted cytokines IL-2 or IFN-y (BD Biosciences CBA Flex Beads, 558269, 558270). T cells were additionally stained with anti-CD69 antibody (Invitrogen, 12-0699-42 which labels a T cell activation associated membrane protein to and surface expression was measured by flow cytometry (ThermoFisher Attune NxT).
(§2) To control for natural inter-donor variability in T cell responses intrinsic to using primary human donor derived cells, secreted IL-2 and IFN-y measurements for each test compound were reported as the fold increase of the compound treated levels over background (antiCD3/CD28 treatment only) normalized to the values obtained for Compound 141A. Results for compound treatment-induced changes in CD69 levels are similarly reported as the fold increase due to compound treatment over anti-CD3 stimulated background only, normalized to values obtained for Compound 141A.
Normalized T cell IL-2 responses were sorted into ranges as follows: fold over background values between 1.41 and 1.8: range “X”, between 0.80 and 1.40: range “A”, values between 0.31 and 0.79: range “B” values between 0.10 and 0.30: range “C”, values between 0.01 and 0.09: range “D.”

Human primary T cells [3] = experiment: T cell activation: secreted IFN-y; assay type: cell-based; settings: 48 hours, fold over background normalized to Compound 141A; for IFN-y 1 nM: 1 nM compound; for IFN-y 10 nM: 10 nM compound; for IFN-y 100 nM: 100 nM compound
Procedure: as §1, §2
Normalized T cell IFN-y responses were sorted into ranges as follows: fold over background between 1.10 and 2.00: range “A”, values between 0.31 and 1.00: range “B;” values between 0.10 and 0.30: range “C”, and values between 0.01 and 0.09: range “D.”

Human primary T cells [4] = experiment: T cell activation: CD69 surface expression by flow cytometry; assay type: cell-based; settings: fold over anti-CD3 stimulated background normalized to Compound 141A; for CD69 10 nM: 10 nM compound; for CD69 100 nM: 100 nM compound
Procedure: as §1, §2
Similarly, bins for normalized CD69 levels were sorted into ranges as follows: fold over background values between 1.11 and 1.6: range “X”, values between 0.81 and 1.10: range “A”; values between 0.61 and 0.80: range “B;” values between 0.30 and 0.60: range “C”.

Sequence of Cbl-b (36-427 aa truncated form, N-terminus Avi-tag) (Q13191 36-427): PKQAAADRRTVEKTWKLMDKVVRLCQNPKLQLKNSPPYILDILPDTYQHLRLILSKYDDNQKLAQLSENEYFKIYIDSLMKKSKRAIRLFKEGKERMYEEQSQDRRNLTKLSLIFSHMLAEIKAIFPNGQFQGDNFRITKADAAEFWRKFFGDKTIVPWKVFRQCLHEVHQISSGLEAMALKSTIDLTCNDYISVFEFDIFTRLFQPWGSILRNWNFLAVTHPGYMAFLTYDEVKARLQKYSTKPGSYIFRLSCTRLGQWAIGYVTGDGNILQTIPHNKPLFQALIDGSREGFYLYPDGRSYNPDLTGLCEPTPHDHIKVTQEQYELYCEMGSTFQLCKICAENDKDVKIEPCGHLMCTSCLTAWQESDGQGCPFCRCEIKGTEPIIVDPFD

Structure (SMILES)	IC50 [1] [nM]	IL-2 1 nM (Human primary T cells [2])	IL-2 10 nM (Human primary T cells [2])	IL-2 100 nM (Human primary T cells [2])	IFN-y 1 nM (Human primary T cells [3])	IFN-y 10 nM (Human primary T cells [3])	IFN-y 100 nM (Human primary T cells [3])	CD69 10 nM (Human primary T cells [4])	CD69 100 nM (Human primary T cells [4])
C[C@H]1CCCN(Cc2cc3c(c(C(F)(F)F)c2)CN(c2cc(C4(Cc5nncn5C)COC4)cc(SCCO)n2)C3=O)C1 [Compound 102, 2-{6-[(2-hydroxyethyl)sulfanyl]-4-{3-[(4-methyl-1,2,4-triazol-3-yl)methyl]oxetan-3-yl}pyridin-2-yl}-6-{[(3S)-3-methylpiperidin-1-yl]methyl}-4-(trifluoromethyl)-3H-isoindol-1-one]	5.01 to 20	C (values between 0.10 and 0.30: range “C”)	C (values between 0.10 and 0.30: range “C”)	B (values between 0.31 and 0.79: range “B”)	C (values between 0.10 and 0.30: range “C”)	C (values between 0.10 and 0.30: range “C”)	B (values between 0.31 and 1.00: range “B;”)	C (values between 0.30 and 0.60: range “C”)	B (values between 0.61 and 0.80: range “B;”)
CSCCNc1cc(C2(Cc3nncn3C)COC2)cc(N2Cc3c(cc(CN4CCC[C@H](C)C4)cc3C(F)(F)F)C2=O)n1 [Compound 103, 2-(4-{3-[(4-methyl-1,2,4-triazol-3-yl)methyl]oxetan-3-yl}-6-{[2-(methylsulfanyl)ethyl]amino}pyridin-2-yl)-6-{[(3S)-3-methylpiperidin-1-yl]methyl}-4-(trifluoromethyl)-3H-isoindol-1-one]	5.01 to 20	C (values between 0.10 and 0.30: range “C”)	C (values between 0.10 and 0.30: range “C”)	B (values between 0.31 and 0.79: range “B”)	C (values between 0.10 and 0.30: range “C”)	C (values between 0.10 and 0.30: range “C”)	B (values between 0.31 and 1.00: range “B;”)	C (values between 0.30 and 0.60: range “C”)	B (values between 0.61 and 0.80: range “B;”)
CCNc1cc(C2(Cc3nncn3C)COC2)cc(N2Cc3c(cc(CN4CCC(CSC)CC4)cc3C(F)(F)F)C2=O)n1 [Compound 106, 2-[6-(ethylamino)-4-{3-[(4-methyl-1,2,4-triazol-3-yl)methyl]oxetan-3-yl}pyridin-2-yl]-6-({4-[(methylsulfanyl)methyl]piperidin-1-yl}methyl)-4-(trifluoromethyl)-3H-isoindol-1-one]	100 to 1000	C (values between 0.10 and 0.30: range “C”)	C (values between 0.10 and 0.30: range “C”)	B (values between 0.31 and 0.79: range “B”)	C (values between 0.10 and 0.30: range “C”)	C (values between 0.10 and 0.30: range “C”)	B (values between 0.31 and 1.00: range “B;”)	C (values between 0.30 and 0.60: range “C”)	B (values between 0.61 and 0.80: range “B;”)
CCSc1cc(C2(Cc3nncn3C)COC2)cc(N2Cc3c(cc(CN4CCC[C@H](C)C4)cc3C(F)(F)F)C2=O)n1 [Compound 107, 2-[6-(ethylsulfanyl)-4-{3-[(4-methyl-1,2,4-triazol-3-yl)methyl]oxetan-3-yl}pyridin-2-yl]-6-{[(3S)-3-methylpiperidin-1-yl]methyl}-4-(trifluoromethyl)-3H-isoindol-1-one]	5.01 to 20	B (values between 0.31 and 0.79: range “B”)	B (values between 0.31 and 0.79: range “B”)	A (between 0.80 and 1.40: range “A”)	B (values between 0.31 and 1.00: range “B;”)	B (values between 0.31 and 1.00: range “B;”)	B (values between 0.31 and 1.00: range “B;”)	A (values between 0.81 and 1.10: range “A”)	A (values between 0.81 and 1.10: range “A”)
Cn1cnnc1CC1(c2cc(NCCC#N)nc(N3Cc4c(cc(CN5CCN(c6ccccc6O)CC5)cc4C(F)(F)F)C3=O)c2)COC1 [Compound 184, 3-((6-(6-((4-(2-hydroxyphenyl)piperazin-1-yl)methyl)-1-oxo-4-(trifluoromethyl)isoindolin-2-yl)-4-(3-((4-methyl-4H-1,2,4-triazol-3-yl)methyl)oxetan-3-yl)pyridin-2-yl)amino)propanenitrile; trifluoroacetic acid]	5.01 to 20	–	–	–	–	–	–	–	–
Cn1cnnc1CC1(c2cc(NCCC#N)nc(N3Cc4c(cc(CN5CCc6ccc(O)cc6C5)cc4C(F)(F)F)C3=O)c2)COC1 [Compound 185, 3-((6-(6-((7-hydroxy-3,4-dihydroisoquinolin-2 (1H)-yl)methyl)-1-oxo-4-(trifluoromethyl)isoindolin-2-yl)-4-(3-((4-methyl-4H-1,2,4-triazol-3-yl)methyl)oxetan-3-yl)pyridin-2-yl)amino)propanenitrile; trifluoroacetic acid]	5.01 to 20	–	–	–	–	–	–	–	–
CCNc1cc(C(CO)(CCl)Cc2nncn2C)cc(N2Cc3c(cc(CN4CCC[C@H](C)C4)cc3C(F)(F)F)C2=O)n1 (stereo partly drawn) [Compound 187, 2-(4-(1-chloro-3-hydroxy-2-((4-methyl-4H-1,2,4-triazol-3-yl)methyl)propan-2-yl)-6-(ethylamino)pyridin-2-yl)-6-(((S)-3-methylpiperidin-1-yl)methyl)-4-(trifluoromethyl)isoindolin-1-one; hydrochloric acid]	20 to 100	–	–	–	–	–	–	–	–
CCSc1cc(C(CO)(CCl)Cc2nncn2C)cc(N2Cc3c(cc(CN4CCC[C@H](C)C4)cc3C(F)(F)F)C2=O)n1 (stereo partly drawn) [Compound 188, 2-(4-(1-chloro-3-hydroxy-2-((4-methyl-4H-1,2,4-triazol-3-yl)methyl)propan-2-yl)-6-(ethylthio)pyridin-2-yl)-6-(((S)-3-methylpiperidin-1-yl)methyl)-4-(trifluoromethyl)isoindolin-1-one; hydrochloric acid]	100 to 1000	–	–	–	–	–	–	–	–
Cn1cnnc1CC1(c2cc(NCCC#N)nc(N3Cc4c(cc(CN5CC6(CCC6O)C5)cc4C(F)(F)F)C3=O)c2)COC1 (centres unmarked) [Compound 189, 3-((6-(6-((5-hydroxy-2-azaspiro[3.3]heptan-2-yl)methyl)-1-oxo-4-(trifluoromethyl)isoindolin-2-yl)-4-(3-((4-methyl-4H-1,2,4-triazol-3-yl)methyl)oxetan-3-yl)pyridin-2-yl)amino)propanenitrile; trifluoroacetic acid]	5.01 to 20	–	–	–	–	–	–	–	–
